Measured values taken from patent US6013659A, “Methods of reducing tumor colony number using novel benzothiazole compounds” (University of Pittsburgh, priority 1998, dated 2000).
Like-named read-outs stand apart in the source and are kept apart here.

Legend:
[1] = system: B16 melanoma pulmonary metastases; test: Early B16 pulmonary metastasis model (Day 4 B16 Model), A-NK cell adoptive immunotherapy; format: in vivo, C57BL/6 mice; conditions: for effect on reduction of B16 melanoma pulmonary metastases mediated by A-NK cell adoptive immunotherapy: A-NK cells administered on day 4; for effect on anti-metastatic therapeutic effect of adoptively transferred A-NK cells: conclusion from the two examples; for significance of reduction in tumor burden (in words): compound B experiments (Table 2), three experiments
Procedure: The B16 F1 melanoma model system, herein after referred to as B16 melanoma model system, is recognized as being highly resistant to treatment with many standard clinically used anti-cancer agents. Therefore, it was selected for testing because it is known to be reflective of the clinical situation for advanced melanoma.
A-NK cells were prepared from mouse spleens. All procedures were carried out in a laminar flow hood using sterile reagents and equipment. Briefly, a single cell suspension was prepared by gently mashing the spleens through a 40 mesh stainless steel screen into complete media (CM) which consisted of RPMI 1640 supplemented with 10% heat-inactivated fetal bovine serum, 100 U/ml penicillin, 100 μg/ml streptomycin sulfate, 50 μg/ml gentamicin sulfate, 2 mM L-glutamine, 5×10^-5 M 2-mercaptoethanol and 1% MEM non-essential amino acids. The erythrocytes in the resulting suspension were lysed and the suspension was centrifuged and washed twice with CM. Splencytes were cultured in T-150 flasks at 1.5×10^8 per cells per flask (A flasks) in 50 ml of CM containing 6000 IU rhIL-2/ml. […] On day 6 the A-NK cells were harvested.
Referring to FIG. 1 which illustrated a flow diagram of procedures for tumor metastasis system, A-NK generation, therapy and analysis for arly B16 tumors used in the present invention. All experimental groups initially contained at least 7 animals. A-NK cell generation was started at day -2 and the culture was expanded on days 0 and 1 as described above.
Separately on day 0, B16 tumor cells (2×10^5 i.v.) were injected into C57BL/6 mice. On days 0, 1, 2, 3 and 4, a benzothiazole compound of formula I (100 mg/kg, p.o.) was administered to the mice. On day 3 some animals received cyclophosphamide (300 mg/kg., i.p.) which is a standard chemotherapeutic drug.
Control mice received injections of vehicle diluent (1% gum arabic). […] On day 10, the mice were sacrificed, their lungs removed and the rumor colonies counted.

[2] = system: B16 melanoma pulmonary metastases; conditions: 216 h
Procedure: A-NK cells were prepared from mouse spleens. All procedures were carried out in a laminar flow hood using sterile reagents and equipment. Briefly, a single cell suspension was prepared by gently mashing the spleens through a 40 mesh stainless steel screen into complete media (CM) which consisted of RPMI 1640 supplemented with 10% heat-inactivated fetal bovine serum, 100 U/ml penicillin, 100 μg/ml streptomycin sulfate, 50 μg/ml gentamicin sulfate, 2 mM L-glutamine, 5×10^-5 M 2-mercaptoethanol and 1% MEM non-essential amino acids. The erythrocytes in the resulting suspension were lysed and the suspension was centrifuged and washed twice with CM. Splencytes were cultured in T-150 flasks at 1.5×10^8 per cells per flask (A flasks) in 50 ml of CM containing 6000 IU rhIL-2/ml. After 2 days the media and the non-adherent cells from the A flasks were transferred into new T-150 flasks (25 ml per flask--B flasks) and fresh CM+IL-2 (25 ml) was placed in the A flasks. The next day (day 3) the non-adherent cells and media from the B flasks were transferred to an equal number of T-150 C flasks and fresh CM+IL-2 was placed on the B flasks. […]
On day 8, 3-4×10^7 A-NK cells plus 120,000 IU of IL-2 were adaptively transferred into tumor-bearing mice. […] On day 9, the mice were sacrificed, their lungs removed and the tumor colonies counted.

in vivo = test: in vivo; parameters: species or system mice; conditions: mouse, po, 100 mg/kg
Procedure: (§1) The compound B of the present invention has been tested for its pharmacokinetics and toxicity in mice. As shown in FIG. 3 peak levels of compound B occurred in the liver 1 h after p.o. administration of a single 100 mg/kg dose. […] Mice were dosed for 5 consecutive days with 0-300 mg/kg of compound B in 1% gum arabic (p.o.). Their weight was measured in 1 week intervals and at 4 weeks the animals were sacrificed and their organ weights measured.

[3] = Subacute toxicity study in mice; format: in vivo; conditions: 0-300 mg/kg p.o. for 5 consecutive days, in 1% gum arabic
Procedure: as §1

COc1cccc2sc(-c3ccc(C(C)(C)C)cc3)nc12 [Compound A, 4-Methoxy-2-(4-t-butylphenyl)benzothiazole]
effect on reduction of B16 melanoma pulmonary metastases mediated by A-NK cell adoptive immunotherapy [1]: enhanced the reduction | reduction of tumor burden (average) ([1]; A-NK cells on day 4, compound A in combination with A-NK cells): 64% | Number of Pulmonary Metastases (± standard deviation) ([1]; Table 1, experiment 1, Compound A + A-NK Cells (with IL-2), 100 mg/kg p.o. days 0-4, control 59 ± 41, *p < 0.05 vs. control): 24 ± 19 | Number of Pulmonary Metastases (± standard deviation) ([1]; Table 1, experiment 2, Compound A + A-NK Cells (with IL-2), 100 mg/kg p.o. days 0-4, control 32 ± 22, *p < 0.05 vs. control): 13 ± 7 | Number of Pulmonary Metastases (± standard deviation) ([1]; Table 1, experiment 3, Compound A + A-NK Cells (with IL-2), 100 mg/kg p.o. days 0-4, control 222 ± 74, **p < 0.02 vs. control): 58 ± 35 | effect on anti-metastatic therapeutic effect of adoptively transferred A-NK cells [1]: augment the anti-metastatic therapeutic effect | reduction of tumor burden (average) [2]: 38%

COc1cccc2sc(-c3ccc(C(F)(F)F)cc3)nc12 [Compound B, 4-Methoxy-2-(4-trifluoromethylphenyl) benzothiazole]
effect on reduction of B16 melanoma pulmonary metastases mediated by A-NK cell adoptive immunotherapy [1]: enhanced the reduction | Number of Pulmonary Metastases (± standard deviation) ([1]; Table 2, experiment 1, Compound B + A-NK Cells (with IL-2), 100 mg/kg p.o. days 0-4, control 125 ± 66, *p < 0.05 vs. control): 66 ± 39 | Number of Pulmonary Metastases (± standard deviation) ([1]; Table 2, experiment 2, Compound B + A-NK Cells (with IL-2), 100 mg/kg p.o. days 0-4, control 187 ± 114, *p < 0.05 vs. control): 88 ± 49 | Number of Pulmonary Metastases (± standard deviation) ([1]; Table 2, experiment 3, Compound B + A-NK Cells (with IL-2), 100 mg/kg p.o. days 0-4, control 199 ± 45, **p < 0.001 vs. control): 88 ± 60 | significance of reduction in tumor burden (in words) [1]: Significant reduction in tumor burden | effect on anti-metastatic therapeutic effect of adoptively transferred A-NK cells [1]: augment the anti-metastatic therapeutic effect | Tmax (in vivo): 1 h | organ weight change ([3]; at 4 weeks): no significant difference | body weight change ([3]; weekly weights to 4 weeks): no significant difference

O=P1(N(CCCl)CCCl)NCCCO1 (centres unmarked) [Cyclophosphamide, cyclophosphamide, reference compound]
Number of Pulmonary Metastases (± standard deviation) ([1]; Table 1, experiment 1, given without compound A): 33 ± 25 | Number of Pulmonary Metastases (± standard deviation) ([1]; Table 1, experiment 2, given without compound A): 18 ± 12 | Number of Pulmonary Metastases (± standard deviation) ([1]; Table 1, experiment 3, given without compound A, cyclophosphamide *p < 0.05 vs. control): 81 ± 60 | Number of Pulmonary Metastases (± standard deviation) ([1]; Table 2, experiment 1, given without compound B): 135 ± 55 | Number of Pulmonary Metastases (± standard deviation) ([1]; Table 2, experiment 2, given without compound B): 156 ± 120 | Number of Pulmonary Metastases (± standard deviation) ([1]; Table 2, experiment 3, given without compound B): 272 ± 110 | significance of reduction in tumor burden (in words) [1]: neither A-NK cells alone or cyclophosphamide yielded a significant reduction in tumor burden
